The structures appear in SMILES notation.

Here are results for 17 compounds from article PMC8402715 (Viruses, 2021).

The subject of one series is host genes in FLUAV-infected RPE cells.
Test: not given
The format is cell-based, human. The note with it: FLUAV-infected RPE cells (moi 1), 10 μM, 8 h.
Turning to `CC(C)(C)NCC(O)c1ccc(O)c(CO)c1` (stereo not shown) [salbutamol, Salbutamol], the “FLUAV-activated host gene expression” value is “did not affect”. Consider `OCc1cc(C(O)CNCCCCCCOCCCCc2ccccc2)ccc1O` (stereo not shown) [salmeterol, Salmeterol], for which the “FLUAV-activated host gene expression” value is given as “did not affect”.

Staying with this series, now noted: virus-infected RPE cells (FLUAV moi 1), 10 μM, 8 h.
As for `CN[C@H]1CC[C@@H](c2ccc(Cl)c(Cl)c2)c2ccccc21` [sertraline, Sertraline], the “expression of PTGS2” value is recorded as “increased”. Regarding `COC(=O)C1=C(C)NC(C)=C(C(=O)OC(C)(C)CN(C)CCC(c2ccccc2)c2ccccc2)C1c1cccc([N+](=O)[O-])c1` (stereo not shown) [lercanidipine, Lercanidipine], the “expression of PTGS2” value is on record as “increased”. `CCC(C)(C)C(=O)O[C@H]1C[C@@H](C)C=C2C=C[C@H](C)[C@H](CC[C@@H]3C[C@@H](O)CC(=O)O3)[C@H]21` [simvastatin, Simvastatin]: the “expression of PTGS2” value is recorded as “increased”. For `COc1ccc2nc([S@@+]([O-])Cc3ncc(C)c(OC)c3C)[nH]c2c1` [esomeprazole, Esomeprazole], the “expression of PTGS2” value is “increased”.

On to `C[C@]12CCC(=O)C=C1[C@@H]1C[C@@H]1[C@H]1[C@@H]3[C@@H]4C[C@@H]4[C@@]4(CCC(=O)O4)[C@@]3(C)CC[C@@H]12` [drospirenone, Drospirenone], for which the “expression of PTGS2” value is “increased”. `CCOC(=O)C1=C(COCCN)NC(C)=C(C(=O)OC)C1c1ccccc1Cl` (stereo not shown) [amlodipine, Amlodipine]: the “expression of PTGS2” value is recorded as “increased”.

In the next series the test system is viral RNAs of influenza A/WSN/33(H1N1) virus.
Test: not given
Format: cell-based, influenza A virus in human RPE cells.
Settings: not given
With `CN(C)C(=N)N=C(N)N` [metformin, Metformin], the “effect on polyadenylated viral RNAs” value was “differentially affected”.

Another series deals with FLUAV-infected RPE cells. The series can be described thus: Metabolomics of polar metabolites in media of FLUAV-infected RPE cells. The note with it: infected RPE cells (FLUAV moi 1), 10 μM, 24 h.
Take `CC(=O)Oc1ccccc1C(=O)O` [acetylsalicylic acid, Acetylsalicylic acid]: the “levels of many polar metabolites in the media” value (shortened to “levels”) is listed as “elevated”. On the same count and under the same terms, to `CC(=O)Nc1ccc(O)cc1` [4-acetamidophenol] belongs “elevated”. On to `C#C[C@]1(O)CC[C@H]2[C@@H]3CCc4cc(O)ccc4[C@H]3CC[C@@]21C` [17a-ethynylestradiol], for which the “levels” value is “elevated”. `CCOc1nc2cccc(C(=O)O)c2n1Cc1ccc(-c2ccccc2-c2nnn[nH]2)cc1` [candesartan, Candesartan]: the “levels” value is “elevated”. For `CCCCNc1cc(C(=O)O)cc(S(N)(=O)=O)c1Oc1ccccc1` [bumetanide, Bumetanide], the “levels” value was “elevated”.

For `CCOC(=O)C1=C(COCCN)NC(C)=C(C(=O)OC)C1c1ccccc1Cl` (stereo not shown) [amlodipine, Amlodipine], the “levels” value was “elevated”.

Test system in a further series: not listed separately
The series can be described thus: Cell viability assay (Cell Titer Glow) in mock-infected RPE cells, cytotoxicity. Conditions: human.
`C=C1CC[C@H](O)C/C1=C/C=C1\CCC[C@]2(C)[C@@H]([C@H](C)CCCC(C)C)CC[C@@H]12` [vitamin D3, Vitamin D3 (colecalciferol)] registered a CC50 at 48 h of 48.8 µM. With `CN[C@H]1CC[C@@H](c2ccc(Cl)c(Cl)c2)c2ccccc21` [sertraline, Sertraline], the CC50 at 48 h was determined as 17.5 µM. In the case of `CCC(C)(C)C(=O)O[C@H]1C[C@@H](C)C=C2C=C[C@H](C)[C@H](CC[C@@H]3C[C@@H](O)CC(=O)O3)[C@H]21` [simvastatin, Simvastatin], the midpoint of cytotoxicity, the CC50 at 48 h, lay at 48.3 µM.

`OCc1cc(C(O)CNCCCCCCOCCCCc2ccccc2)ccc1O` (stereo not shown) [salmeterol, Salmeterol] returned a CC50 at 48 h of 29.3 µM. Against the preceding compound, the CC50 at 48 h is about 1.6-fold lower. In turn, `C=C1CC[C@H](O)C/C1=C/C=C1\CCC[C@]2(C)[C@@H]([C@H](C)/C=C/[C@H](C)C(C)C)CC[C@@H]12` [vitamin D2, Vitamin D2] showed a CC50 at 48 h of 42.1 µM.

Take `C#C[C@]1(O)CC[C@H]2[C@@H]3CCC4=CCCC[C@@H]4[C@H]3C(=C)C[C@@]21CC` [desogestrel, Desogestrel]: the CC50 at 48 h amounted to 34.5 µM.

The subject of a further series is host genes in mock-infected RPE cells.
Test: not given
Format: cell-based, human. The note with it: mock-infected RPE cells, 10 μM, 8 h.
As for `CN[C@H]1CC[C@@H](c2ccc(Cl)c(Cl)c2)c2ccccc21` [sertraline, Sertraline], the “expression of PTGS2” value is “increased”. As to `COC(=O)C1=C(C)NC(C)=C(C(=O)OC(C)(C)CN(C)CCC(c2ccccc2)c2ccccc2)C1c1cccc([N+](=O)[O-])c1` (stereo not shown) [lercanidipine, Lercanidipine], the “expression of PTGS2” value is “increased”. Still for that read-out and setting: the entry for `CCC(C)(C)C(=O)O[C@H]1C[C@@H](C)C=C2C=C[C@H](C)[C@H](CC[C@@H]3C[C@@H](O)CC(=O)O3)[C@H]21` [simvastatin, Simvastatin] is “increased”; for `COc1ccc2nc([S@@+]([O-])Cc3ncc(C)c(OC)c3C)[nH]c2c1` [esomeprazole, Esomeprazole] it is “increased”; for `C[C@]12CCC(=O)C=C1[C@@H]1C[C@@H]1[C@H]1[C@@H]3[C@@H]4C[C@@H]4[C@@]4(CCC(=O)O4)[C@@]3(C)CC[C@@H]12` [drospirenone, Drospirenone] it is “increased”. Same read-out and setting: the entry for `CCOC(=O)C1=C(COCCN)NC(C)=C(C(=O)OC)C1c1ccccc1Cl` (stereo not shown) [amlodipine, Amlodipine] is “increased”.

The same series, now with this note: non-infected RPE cells, 10 μM, 8 h, compared to non-treated cells.
`CC(C)(C)NCC(O)c1ccc(O)c(CO)c1` (stereo not shown) [salbutamol, Salbutamol]: the “expression of PDE4D, CRISPLD2 and PTGES” value is “increased”; the “expression of SLC26A4, FAM111B and CCNE2” value is reported as “decreased”. For the compound `OCc1cc(C(O)CNCCCCCCOCCCCc2ccccc2)ccc1O` (stereo not shown) [salmeterol, Salmeterol], the “expression of PDE4D, CRISPLD2 and PTGES” value is on record as “increased”; the “expression of SLC26A4, FAM111B and CCNE2” value is listed as “decreased”.

As a reminder, the CC50 is the concentration at which the toxic effect on the cells reaches its halfway point. High values mean lower toxicity to the cells, low ones greater toxicity to the cells.
